Data from ChEMBL document CHEMBL4765470 (J Med Chem, 2021).
Starred links: 1 amine or outer side, 2 acyl side, 3 side chain; linkers in the order of their positions; H or OH if unused. Non-standard residues stand in square brackets, D forms with d. Residues, ends and D or L forms follow the SMILES beside them. *: point of attachment. γ4hPhe = O=C(CC[C@H](Cc1ccccc1)N[*:1])[*:2]; 1Nal = N[C@@H](Cc1cccc2ccccc12)C(=O)O; 2Nal = N[C@@H](Cc1ccc2ccccc2c1)C(=O)O; αMeF = C[C@](N)(Cc1ccccc1)C(=O)O; β3hF = N[C@H](CC(=O)O)Cc1ccccc1; Cha = N[C@@H](CC1CCCCC1)C(=O)O; Tle = CC(C)(C)[C@H](N)C(=O)O; Nle = CCCC[C@H](N)C(=O)O; Ac5c = NC1(C(=O)O)CCCC1; Bn = c1ccc(C*)cc1

Columns and labels:
[1] = target: T1, Apelin receptor (Homo sapiens, UniProt P35414); test: Agonist activity at human APJ receptor expressed in HEK293 cells co-expressing Galpha(i1)-RlucII(91) assessed as induction of dissociation of Galpha(i1) from G-beta-gamma subunits incubated for 5 mins by BRET assay; type: cell-based
T1 sequence (P35414 whole entry): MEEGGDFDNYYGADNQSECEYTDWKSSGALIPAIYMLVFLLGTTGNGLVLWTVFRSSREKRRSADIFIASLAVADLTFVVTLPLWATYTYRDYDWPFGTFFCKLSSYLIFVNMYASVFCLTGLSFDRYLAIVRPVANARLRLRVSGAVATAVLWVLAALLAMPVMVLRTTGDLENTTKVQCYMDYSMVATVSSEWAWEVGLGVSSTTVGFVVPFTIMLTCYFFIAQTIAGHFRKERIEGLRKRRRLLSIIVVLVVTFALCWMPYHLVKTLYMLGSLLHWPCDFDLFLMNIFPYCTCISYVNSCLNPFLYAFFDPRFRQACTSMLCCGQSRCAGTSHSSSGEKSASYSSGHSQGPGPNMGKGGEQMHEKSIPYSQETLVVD

[2] = target: T1, Apelin receptor; test: Agonist activity at human APJ receptor expressed in HEK293T cells co-expressing PDZ-Rho-Gef-RLucll assessed as induction of Galpha12 effector (PDZ-RhoGEF) to the cell membrane incubated for 5 mins by BRET assay; type: functional, cell-based
[3] = target: T1, Apelin receptor; test: Displacement of [125I] [NIe75, Tyr77]Pyr-apelin-13 from YFP-tagged human APJ receptor expressed in HEK293 cell membranes incubated for 1 hr by gamma counting based Cheng-Prusoff equation analysis
[4] = target: T1, Apelin receptor; test: Agonist activity at human APJ receptor expressed in HEK293 cells co-expressing Rlucll-beta-arrestin2 assessed as induction of beta-arrestin2 recruitment to APJ incubated for 30 mins by BRET assay; type: cell-based
[5] = target: T2, Apelin receptor (Homo sapiens) (UniProt P35414); test: Agonist activity at human APJ receptor expressed in HEK293 cells co-expressing […] assessed as induction of Galpha12 effector (PDZ-RhoGEF) to the cell membrane incubated for 5 mins by BRET assay relative to control; type: functional, cell-based; settings: filed as agonist
T2 sequence (whole entry): T1 sequence (P35414 whole entry)

SMILES	EC50 [1] [µM]	EC50 [2] [µM]	Ki [3] [µM]	EC50 [4] [µM]	Emax [5] [%]
CCCC[C@H](N)C(=O)N1CCC[C@H]1C(=O)N[C@@H](CC(C)C)C(=O)N[C@@H](Cc1cnc[nH]1)C(=O)N[C@@H](CO)C(=O)N[C@@H](CCCNC(=N)N)C(=O)N[C@@H](Cc1ccccc1)C(=O)N1CCC[C@H]1C(=O)N[C@@H](Cc1ccccc1)C(=O)N1CCC[C@H]1C(=O)O (H-[Nle]PLHSRFPFP-OH)	0.014	0.314	0.018	0.533	–
CCCC[C@H](N)C(=O)N1CCC[C@H]1C(=O)N[C@@](C)(Cc1ccccc1)C(=O)N[C@@H](Cc1cnc[nH]1)C(=O)N[C@@H](CO)C(=O)N[C@@H](CCCNC(=N)N)C(=O)N[C@H](C(=O)N1CCC[C@H]1C(=O)N[C@@H](Cc1ccccc1)C(=O)N1CCC[C@H]1C(=O)O)C(C)C (H-[Nle]P[αMeF]HSRVPFP-OH)	0.0064	0.515	0.025	0.189	–
CCCC[C@H](N)C(=O)N1CCC[C@H]1C(=O)N[C@@H](CC(C)C)C(=O)N[C@@H](Cc1cnc[nH]1)C(=O)N[C@@H](CO)C(=O)N[C@@H](CCCNC(=N)N)C(=O)N[C@H](C(=O)N1CCC[C@H]1C(=O)N[C@@H](Cc1ccc2ccccc2c1)C(=O)N1CCC[C@H]1C(=O)O)C(C)C (H-[Nle]PLHSRVP[2Nal]P-OH)	0.007	0.152	0.016	0.155	–
CCCC[C@H](N)C(=O)N1CCC[C@H]1C(=O)N[C@@H](CC(C)C)C(=O)N[C@@H](Cc1cnc[nH]1)C(=O)N[C@@H](CO)C(=O)N[C@@H](CCCNC(=N)N)C(=O)N[C@H](C(=O)N1CCC[C@H]1C(=O)N[C@@H](CCc1ccccc1)C(=O)N1CCC[C@H]1C(=O)O)C(C)C	0.004	0.128	0.0093	0.151	–
CCCC[C@H](N)C(=O)N1CCC[C@H]1C(=O)N[C@@H](CC(C)C)C(=O)N[C@@H](Cc1cnc[nH]1)C(=O)N[C@@H](CO)C(=O)N[C@@H](CCCNC(=N)N)C(=O)N[C@H](C(=O)N1CCC[C@H]1C(=O)N[C@@H](Cc1ccccc1)C(=O)N[C@@H](Cc1cccc2ccccc12)C(=O)O)C(C)C (H-[Nle]PLHSRVPF[1Nal]-OH)	0.0045	0.03	0.013	0.123	–
CCCC[C@H](N)C(=O)N1CCC[C@H]1C(=O)N[C@@](C)(CC(C)C)C(=O)N[C@@H](Cc1cnc[nH]1)C(=O)N[C@@H](CO)C(=O)N[C@@H](CCCNC(=N)N)C(=O)N[C@H](C(=O)N1CCC[C@H]1C(=O)N[C@@H](Cc1ccccc1)C(=O)N1CCC[C@H]1C(=O)O)C(C)C	0.0011	0.074	0.0011	0.088	–
CCCC[C@H](N)C(=O)N1CCC[C@H]1C(=O)N[C@@H](CC(C)C)C(=O)N[C@@H](Cc1cnc[nH]1)C(=O)N[C@@H](CO)C(=O)N[C@@H](CCCNC(=N)N)C(=O)N[C@H](C(=O)N1CCC[C@H]1C(=O)N[C@@H](Cc1ccccc1)C(=O)N[C@@H](Cc1ccccc1)C(=O)O)C(C)C (H-[Nle]PLHSRVPFF-OH)	0.0023	0.043	0.004	0.053	–
CCCC[C@H](N)C(=O)N1CCC[C@H]1C(=O)N[C@@H](CC(C)C)C(=O)N[C@@H](Cc1cnc[nH]1)C(=O)N[C@@H](CO)C(=O)N[C@@H](CCCNC(=N)N)C(=O)N[C@H](C(=O)N1CCC[C@H]1C(=O)N[C@H](CCC(=O)O)Cc1ccccc1)C(C)C (H-[Nle]PLHSRVP-γ4hPhe)	0.0058	0.198	0.0089	0.175	–
CCCC[C@H](N)C(=O)N1CCC[C@H]1C(=O)N[C@@H](CC(C)C)C(=O)N[C@@H](Cc1cnc[nH]1)C(=O)N[C@@H](CO)C(=O)N[C@@H](CCCNC(=N)N)C(=O)N[C@H](C(=O)N1CCC[C@H]1C(=O)N[C@@H](Cc1ccccc1)C(=O)N[C@@H](Cc1ccc2ccccc2c1)C(=O)O)C(C)C (H-[Nle]PLHSRVPF[2Nal]-OH)	0.0038	0.037	0.0039	0.107	–
CCCC[C@H](N)C(=O)N1CCC[C@H]1C(=O)N[C@H](C(=O)N[C@@H](Cc1cnc[nH]1)C(=O)N[C@@H](CO)C(=O)N[C@@H](CCCNC(=N)N)C(=O)N[C@H](C(=O)N1CCC[C@H]1C(=O)N[C@@H](Cc1ccccc1)C(=O)N1CCC[C@H]1C(=O)O)C(C)C)C(C)(C)C (H-[Nle]P[Tle]HSRVPFP-OH)	0.0024	0.795	0.021	0.401	–
CCCC[C@H](N)C(=O)N1CCC[C@H]1C(=O)NC1(C(=O)N[C@@H](Cc2cnc[nH]2)C(=O)N[C@@H](CO)C(=O)N[C@@H](CCCNC(=N)N)C(=O)N[C@H](C(=O)N2CCC[C@H]2C(=O)N[C@@H](Cc2ccccc2)C(=O)N2CCC[C@H]2C(=O)O)C(C)C)CCCC1 (H-[Nle]P[Ac5c]HSRVPFP-OH)	0.0012	0.07	0.0024	0.079	–
CCCC[C@H](N)C(=O)N1CCC[C@H]1C(=O)N[C@@H](CC(C)C)C(=O)N[C@@H](Cc1cnc[nH]1)C(=O)N[C@@H](CO)C(=O)N[C@@H](CCCNC(=N)N)C(=O)N[C@H](C(=O)N1CCC[C@H]1C(=O)N[C@@H](Cc1ccccc1)C(=O)N1C2CCCCC2C[C@H]1C(=O)O)C(C)C (some centres not stated)	0.0069	0.224	0.0051	0.172	–
CCCC[C@H](N)C(=O)N1CCC[C@H]1C(=O)N[C@@H](CC(C)C)C(=O)N[C@@H](Cc1cnc[nH]1)C(=O)N[C@@H](CO)C(=O)N[C@@H](CCCNC(=N)N)C(=O)N[C@H](C(=O)N1CCC[C@H]1C(=O)N[C@@H](Cc1cccc2ccccc12)C(=O)N1CCC[C@H]1C(=O)O)C(C)C (H-[Nle]PLHSRVP[1Nal]P-OH)	0.023	1.04	0.021	0.537	–
CCCC[C@H](N)C(=O)N1CCC[C@H]1C(=O)N[C@@H](CC(C)C)C(=O)N[C@@H](Cc1cnc[nH]1)C(=O)N[C@@H](CO)C(=O)N[C@@H](CCCNC(=N)N)C(=O)N[C@H](C(=O)N1CCC[C@H]1C(=O)N[C@@H](Cc1ccccc1)C(=O)N[C@@H](Cc1ccc(OCc2ccccc2)cc1)C(=O)O)C(C)C (H-[Nle]PLHSRVPFY(Bn)-OH)	0.019	1.53	0.019	0.381	–
CCCC[C@H](N)C(=O)N1CCC[C@H]1C(=O)N[C@@H](CC(C)C)C(=O)N[C@@H](Cc1cnc[nH]1)C(=O)N[C@@H](CO)C(=O)N[C@@H](CCCNC(=N)N)C(=O)N[C@H](C(=O)N1CCC[C@H]1C(=O)N[C@H](CC(=O)O)Cc1ccccc1)C(C)C (H-[Nle]PLHSRVP[β3hF]-OH)	0.0051	0.74	0.019	0.182	–
CCCC[C@H](N)C(=O)N1CCC[C@H]1C(=O)N[C@H](C(=O)N[C@@H](Cc1cnc[nH]1)C(=O)N[C@@H](CO)C(=O)N[C@@H](CCCNC(=N)N)C(=O)N[C@H](C(=O)N1CCC[C@H]1C(=O)N[C@@H](Cc1ccccc1)C(=O)N1CCC[C@H]1C(=O)O)C(C)C)[C@@H](C)CC (H-[Nle]PIHSRVPFP-OH)	0.0058	0.141	0.016	0.37	–
CCCC[C@H](N)C(=O)N1CCC[C@H]1C(=O)N[C@@H](CC(C)C)C(=O)N[C@@H](Cc1cnc[nH]1)C(=O)N[C@@H](CO)C(=O)N[C@@H](CCCNC(=N)N)C(=O)N[C@H](C(=O)N1CCC[C@H]1C(=O)N[C@@H](CC1CCCCC1)C(=O)N1CCC[C@H]1C(=O)O)C(C)C (H-[Nle]PLHSRVP[Cha]P-OH)	0.017	0.054	0.004	0.94	43
CCCC[C@H](N)C(=O)N1CCC[C@H]1C(=O)N[C@@H](CC(C)C)C(=O)N[C@@H](Cc1cnc[nH]1)C(=O)N[C@@H](CO)C(=O)N[C@@H](CCCNC(=N)N)C(=O)N[C@H](C(=O)N1CCC[C@H]1C(=O)N[C@@H](Cc1ccccc1)C(=O)N[C@@H](CC(C)C)C(=O)O)C(C)C (H-[Nle]PLHSRVPFL-OH)	0.0046	0.525	0.02	0.149	–
CCCC[C@H](N)C(=O)N1CCC[C@H]1C(=O)N[C@@H](CC1CCCCC1)C(=O)N[C@@H](Cc1cnc[nH]1)C(=O)N[C@@H](CO)C(=O)N[C@@H](CCCNC(=N)N)C(=O)N[C@H](C(=O)N1CCC[C@H]1C(=O)N[C@@H](Cc1ccccc1)C(=O)N1CCC[C@H]1C(=O)O)C(C)C (H-[Nle]P[Cha]HSRVPFP-OH)	0.0028	0.094	0.004	0.12	–
